According to the supplement of paper PMC10307832:

Key:
Test in all cases: relative viability (nuclei count vs DMSO), 5 days (fraction); higher = more cells survive
[1] = compound: COc1cc(Nc2ncc(F)c(Nc3ccc4c(n3)NC(=O)C(C)(C)O4)n2)cc(OC)c1OC [R406] + COc1cccc2cc(-c3nc([C@H]4CC[C@H](C(=O)O)CC4)n4ncnc(N)c34)[nH]c12 [OSI-027] (partner 0.5 µM)
How it was run: (§1)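 Lung cancer cell lines in 1536-well plates were dosed by pin tool the day after seeding, either with one drug alone or with a fixed anchor-drug dose plus five library-drug doses (not always all listed) in √10 steps. After 5 days, cells were fixed and their nuclei stained in one step (final 0.05% Triton X-100, 1% formaldehyde, 1 ug/ml Hoechst), then counted on 4× images. Relative viability is the nuclei count in treated wells divided by that in vehicle wells. Values are medians of duplicate plates.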

[2] = compound: COc1cc(Nc2ncc(F)c(Nc3ccc4c(n3)NC(=O)C(C)(C)O4)n2)cc(OC)c1OC [R406] + Cc1cc(Nc2cc(N3CCN(C)CC3)nc(Sc3ccc(NC(=O)C4CC4)cc3)n2)n[nH]1 [Tozasertib] (partner 0.1 µM)
How it was run: as §1

[3] = compound: COc1cc(Nc2ncc(F)c(Nc3ccc4c(n3)NC(=O)C(C)(C)O4)n2)cc(OC)c1OC [R406] + C[C@]1(O)C[C@@H](c2nc(-c3ccc4ccc(-c5ccccc5)nc4c3)c3c(N)nccn32)C1 [Linsitinib] (partner 1 µM)
How it was run: as §1

[4] = compound: COc1cc(Nc2ncc(F)c(Nc3ccc4c(n3)NC(=O)C(C)(C)O4)n2)cc(OC)c1OC [R406] + CS(=O)(=O)N1CCN(Cc2cc3nc(-c4cccc5[nH]ncc45)nc(N4CCOCC4)c3s2)CC1 [Pictilisib] (partner 1 µM)
How it was run: as §1

NCI-H2347
relative viability ([1]; first compound 0.08 µM): 0.381 | relative viability ([1]; first compound 0.253 µM): 0.436 | relative viability ([1]; first compound 0.8 µM): 0.479 | relative viability ([1]; first compound 2.53 µM): 0.278 | relative viability ([1]; first compound 8 µM): 0.253 | relative viability ([2]; first compound 0.08 µM): 0.537 | relative viability ([2]; first compound 0.253 µM): 0.671 | relative viability ([2]; first compound 0.8 µM): 0.682 | relative viability ([2]; first compound 2.53 µM): 0.458 | relative viability ([2]; first compound 8 µM): 0.347 | relative viability ([3]; first compound 0.08 µM): 0.928 | relative viability ([3]; first compound 0.253 µM): 1.01 | relative viability ([3]; first compound 0.8 µM): 1.06 | relative viability ([3]; first compound 2.53 µM): 0.848 | relative viability ([3]; first compound 8 µM): 0.71 | relative viability ([4]; first compound 0.08 µM): 0.53 | relative viability ([4]; first compound 0.253 µM): 0.952 | relative viability ([4]; first compound 0.8 µM): 0.605 | relative viability ([4]; first compound 2.53 µM): 0.624 | relative viability ([4]; first compound 8 µM): 0.28

NCI-H2405
relative viability ([1]; first compound 0.08 µM): 0.658 | relative viability ([1]; first compound 0.253 µM): 0.686 | relative viability ([1]; first compound 0.8 µM): 0.608 | relative viability ([1]; first compound 2.53 µM): 0.556 | relative viability ([1]; first compound 8 µM): 0.283 | relative viability ([2]; first compound 0.08 µM): 0.76 | relative viability ([2]; first compound 0.253 µM): 0.845 | relative viability ([2]; first compound 0.8 µM): 0.82 | relative viability ([2]; first compound 2.53 µM): 0.804 | relative viability ([2]; first compound 8 µM): 0.542 | relative viability ([3]; first compound 0.08 µM): 0.916 | relative viability ([3]; first compound 0.253 µM): 0.89 | relative viability ([3]; first compound 0.8 µM): 1.01 | relative viability ([3]; first compound 2.53 µM): 0.731 | relative viability ([3]; first compound 8 µM): 0.221 | relative viability ([4]; first compound 0.08 µM): 0.514 | relative viability ([4]; first compound 0.253 µM): 0.475 | relative viability ([4]; first compound 0.8 µM): 0.396 | relative viability ([4]; first compound 2.53 µM): 0.265 | relative viability ([4]; first compound 8 µM): 0.175

NCI-H3122
relative viability ([1]; first compound 0.08 µM): 0.956 | relative viability ([1]; first compound 0.253 µM): 1.06 | relative viability ([1]; first compound 0.8 µM): 1.01 | relative viability ([1]; first compound 2.53 µM): 0.319 | relative viability ([1]; first compound 8 µM): 0.78 | relative viability ([2]; first compound 0.08 µM): 0.491 | relative viability ([2]; first compound 0.253 µM): 0.415 | relative viability ([2]; first compound 0.8 µM): 0.34 | relative viability ([2]; first compound 2.53 µM): 0.328 | relative viability ([2]; first compound 8 µM): 0.45 | relative viability ([3]; first compound 0.08 µM): 0.976 | relative viability ([3]; first compound 0.253 µM): 0.921 | relative viability ([3]; first compound 0.8 µM): 0.982 | relative viability ([3]; first compound 2.53 µM): 1.01 | relative viability ([3]; first compound 8 µM): 0.98 | relative viability ([4]; first compound 0.08 µM): 0.581 | relative viability ([4]; first compound 0.253 µM): 0.59 | relative viability ([4]; first compound 0.8 µM): 0.668 | relative viability ([4]; first compound 2.53 µM): 0.576 | relative viability ([4]; first compound 8 µM): 0.604

PC-3 [JPC-3]
relative viability ([1]; first compound 0.08 µM): 0.854 | relative viability ([1]; first compound 0.253 µM): 0.872 | relative viability ([1]; first compound 0.8 µM): 0.932 | relative viability ([1]; first compound 2.53 µM): 0.494 | relative viability ([1]; first compound 8 µM): 0.427 | relative viability ([2]; first compound 0.08 µM): 0.942 | relative viability ([2]; first compound 0.253 µM): 0.964 | relative viability ([2]; first compound 0.8 µM): 1.01 | relative viability ([2]; first compound 2.53 µM): 0.88 | relative viability ([2]; first compound 8 µM): 0.516 | relative viability ([3]; first compound 0.08 µM): 0.981 | relative viability ([3]; first compound 0.253 µM): 0.977 | relative viability ([3]; first compound 0.8 µM): 1.01 | relative viability ([3]; first compound 2.53 µM): 1 | relative viability ([3]; first compound 8 µM): 0.791 | relative viability ([4]; first compound 0.08 µM): 0.764 | relative viability ([4]; first compound 0.253 µM): 0.762 | relative viability ([4]; first compound 0.8 µM): 0.814 | relative viability ([4]; first compound 2.53 µM): 0.467 | relative viability ([4]; first compound 8 µM): 0.421

PC-14
relative viability ([1]; first compound 0.08 µM): 0.795 | relative viability ([1]; first compound 0.253 µM): 1.11 | relative viability ([1]; first compound 0.8 µM): 1.41 | relative viability ([1]; first compound 2.53 µM): 0.428 | relative viability ([1]; first compound 8 µM): 0.121 | relative viability ([2]; first compound 0.08 µM): 0.57 | relative viability ([2]; first compound 0.253 µM): 0.681 | relative viability ([2]; first compound 0.8 µM): 0.623 | relative viability ([2]; first compound 2.53 µM): 0.546 | relative viability ([2]; first compound 8 µM): 0.603 | relative viability ([3]; first compound 0.08 µM): 0.941 | relative viability ([3]; first compound 0.253 µM): 1.05 | relative viability ([3]; first compound 0.8 µM): 1.01 | relative viability ([3]; first compound 2.53 µM): 0.852 | relative viability ([3]; first compound 8 µM): 0.8 | relative viability ([4]; first compound 0.08 µM): 0.669 | relative viability ([4]; first compound 0.253 µM): 0.835 | relative viability ([4]; first compound 0.8 µM): 0.703 | relative viability ([4]; first compound 2.53 µM): 0.319 | relative viability ([4]; first compound 8 µM): 0.381

RERF-LC-KJ
relative viability ([1]; first compound 0.08 µM): 0.609 | relative viability ([1]; first compound 0.253 µM): 0.588 | relative viability ([1]; first compound 0.8 µM): 0.623 | relative viability ([1]; first compound 2.53 µM): 0.432 | relative viability ([1]; first compound 8 µM): 0.392 | relative viability ([2]; first compound 0.08 µM): 0.463 | relative viability ([2]; first compound 0.253 µM): 0.653 | relative viability ([2]; first compound 0.8 µM): 0.447 | relative viability ([2]; first compound 2.53 µM): 0.481 | relative viability ([2]; first compound 8 µM): 0.402 | relative viability ([3]; first compound 0.08 µM): 0.848 | relative viability ([3]; first compound 0.253 µM): 0.846 | relative viability ([3]; first compound 0.8 µM): 1.03 | relative viability ([3]; first compound 2.53 µM): 0.657 | relative viability ([3]; first compound 8 µM): 0.695 | relative viability ([4]; first compound 0.08 µM): 0.749 | relative viability ([4]; first compound 0.253 µM): 0.488 | relative viability ([4]; first compound 0.8 µM): 0.64 | relative viability ([4]; first compound 2.53 µM): 0.43 | relative viability ([4]; first compound 8 µM): 0.502

SK-LU-1
relative viability ([1]; first compound 0.08 µM): 0.312 | relative viability ([1]; first compound 0.253 µM): 0.337 | relative viability ([1]; first compound 0.8 µM): 0.424 | relative viability ([1]; first compound 2.53 µM): 0.153 | relative viability ([1]; first compound 8 µM): 0.0841 | relative viability ([2]; first compound 0.08 µM): 0.301 | relative viability ([2]; first compound 0.253 µM): 0.318 | relative viability ([2]; first compound 0.8 µM): 0.363 | relative viability ([2]; first compound 2.53 µM): 0.256 | relative viability ([2]; first compound 8 µM): 0.106 | relative viability ([3]; first compound 0.08 µM): 1.03 | relative viability ([3]; first compound 0.253 µM): 1.07 | relative viability ([3]; first compound 0.8 µM): 1.07 | relative viability ([3]; first compound 2.53 µM): 0.595 | relative viability ([3]; first compound 8 µM): 0.292 | relative viability ([4]; first compound 0.08 µM): 0.46 | relative viability ([4]; first compound 0.253 µM): 0.658 | relative viability ([4]; first compound 0.8 µM): 0.546 | relative viability ([4]; first compound 2.53 µM): 0.277 | relative viability ([4]; first compound 8 µM): 0.173

SK-MES-1
relative viability ([1]; first compound 0.08 µM): 0.588 | relative viability ([1]; first compound 0.253 µM): 0.649 | relative viability ([1]; first compound 0.8 µM): 0.714 | relative viability ([1]; first compound 2.53 µM): 0.341 | relative viability ([1]; first compound 8 µM): 0.13 | relative viability ([2]; first compound 0.08 µM): 0.916 | relative viability ([2]; first compound 0.253 µM): 0.942 | relative viability ([2]; first compound 0.8 µM): 0.914 | relative viability ([2]; first compound 2.53 µM): 0.719 | relative viability ([2]; first compound 8 µM): 0.377 | relative viability ([3]; first compound 0.08 µM): 1.04 | relative viability ([3]; first compound 0.253 µM): 1.13 | relative viability ([3]; first compound 0.8 µM): 1.1 | relative viability ([3]; first compound 2.53 µM): 0.569 | relative viability ([3]; first compound 8 µM): 0.488 | relative viability ([4]; first compound 0.08 µM): 0.34 | relative viability ([4]; first compound 0.253 µM): 0.325 | relative viability ([4]; first compound 0.8 µM): 0.333 | relative viability ([4]; first compound 2.53 µM): 0.234 | relative viability ([4]; first compound 8 µM): 0.195

SW 1573
relative viability ([1]; first compound 0.08 µM): 0.603 | relative viability ([1]; first compound 0.253 µM): 0.783 | relative viability ([1]; first compound 0.8 µM): 0.869 | relative viability ([1]; first compound 2.53 µM): 0.493 | relative viability ([1]; first compound 8 µM): 0.224 | relative viability ([2]; first compound 0.08 µM): 0.179 | relative viability ([2]; first compound 0.253 µM): 0.233 | relative viability ([2]; first compound 0.8 µM): 0.22 | relative viability ([2]; first compound 2.53 µM): 0.175 | relative viability ([2]; first compound 8 µM): 0.0962 | relative viability ([3]; first compound 0.08 µM): 0.926 | relative viability ([3]; first compound 0.253 µM): 0.864 | relative viability ([3]; first compound 0.8 µM): 0.812 | relative viability ([3]; first compound 2.53 µM): 0.664 | relative viability ([3]; first compound 8 µM): 0.627 | relative viability ([4]; first compound 0.08 µM): 0.45 | relative viability ([4]; first compound 0.253 µM): 0.499 | relative viability ([4]; first compound 0.8 µM): 0.543 | relative viability ([4]; first compound 2.53 µM): 0.422 | relative viability ([4]; first compound 8 µM): 0.31
